# Laboratory results: patent US20260041661A1, “THREE-COMPONENT PRODRUG, PHARMACEUTICAL COMPOSITION THEREOF, AND MEDICAL USE THEREOF” (J2H BIOTECH INC., priority 2022, published 2026)
# Where a name gives a salt, the structure may show the parent alone.
# How the values were obtained:
# [1] = cited from earlier work
# [2] = RRMS patients, DRF 462 mg twice daily for 5 weeks; cited from earlier work
# [3] = system: EAE mice (experimental autoimmune encephalomyelitis); test: Efficacy in EAE animal model of multiple sclerosis: clinical score; type: in vivo, C57BL/6 mice; settings: for Clinical Score (Day 21): day 2-21, score 0 to 5, vehicle group 3.2
# [4] = system: CD4 T cells, CD8 T cells, Th1 cells and Th17 cells; test: Immune cell infiltration in EAE mice by flow cytometry; type: in vivo, C57BL/6 mice; settings: for CD8 T Cell (%) / CD4 T Cell (%): tissue not given; for CD8 T Cell (%): vehicle group 16.0; for CD4 T Cell (%): vehicle group 23.2; for Th17 Cell (%): vehicle group 12.4; for Th1 Cell (%): vehicle group 15.4
# prostaglandin D2 (PGD2) = test: Toxicity evaluation: flushing side effect by blood prostaglandin D2 concentration (ELISA); type: in vivo; settings: C57BL6 male mice, 165.6 mg/kg vs DMF 60 mg/kg, 5 minutes after administration
# Procedure: The flushing phenomenon was confirmed through analysis of the concentration of prostaglandin D2 (PGD2) in the blood. PGD2 is a bio-derived substance closely related to the flushing phenomenon, and the concentration analysis of PGD2 in the blood is known as a standard test method for predicting the side effects of drugs. (The journal of pharmacology and experimental therapeutics, 2008, 327(3), 665.) The test method was conducted by dividing C57BL6 male mice into three groups as test animals. […] PGD2 present in the collected blood was measured using an Elisa kit (#CSB-E14022m, CUSABIO).
# [5] = EVOLVE-MS-1 phase 3 clinical program
smiles,measurement,setting,value
COC(=O)/C=C/C(=O)OCCN1C(=O)CCC1=O [diroximel fumarate],Subjects who discontinued administration,[1]; [5],14.9%
same,Subjects who discontinued due to drug-induced side effects,[1]; [5],6.3%
same,Incidence of gastrointestinal side effects (GI TEAEs),"[1]; all patients administered DRF, phase 3 clinical trials",more than 30%
same,Decrease of incidence of gastrointestinal side effects compared to DMF group,"[1]; phase 3 clinical trials, vs the 40% incidence with DMF",10%
same,"Diarrhea, frequency reported",[2],15.4%
same,"Flushing, frequency reported",[2],32.8%
same,"Nausea, frequency reported",[2],14.6%
"COC(=O)/C=C/C(=O)Oc1ccc(COC(=O)c2ccccc2OC(C)=O)cc1 [Example 1, 4-((acetoxybenzoyloxy)methyl)phenyl Methyl Fumarate]",Clinical Score (Day 21),[3]; chemical formula 1 82.8 mpk oral twice a day,2.0
same,Clinical Score (Day 21),[3]; chemical formula 1 165.6 mpk oral twice a day,1.5
same,Clinical score improvement,"[3]; low dose (G5, 82.8 mg/kg) and high dose (G6, 165.6 mg/kg)",significant clinical score improvement effects
same,Infiltration rate of CD4 and CD8 T cells in the lymph nodes compared to disease-induced group (G2),"[4]; FIG. 1, low-dose (G5) and high-dose (G6)",significant decrease
same,Infiltration rate of CD4 and CD8 T cells in the central nervous system compared to disease-induced group (G2),"[4]; FIG. 2, low-dose (G5) and high-dose (G6)",significant decrease
same,Infiltration rate of Th1 and Th17 cells in the lymph nodes compared to disease-induced group (G2),"[4]; FIG. 3, low-dose (G5) and high-dose (G6)",decrease
same,CD8 T Cell (%),[4]; chemical formula 1 82.8 mpk,7.8%
same,CD4 T Cell (%),[4]; chemical formula 1 82.8 mpk,11.2%
same,Th17 Cell (%),[4]; chemical formula 1 82.8 mpk,8.8%
same,Th1 Cell (%),[4]; chemical formula 1 82.8 mpk,8.8%
same,CD8 T Cell (%),[4]; chemical formula 1 165.6 mpk,4.7%
same,CD4 T Cell (%),[4]; chemical formula 1 165.6 mpk,6.5%
same,Th17 Cell (%),[4]; chemical formula 1 165.6 mpk,7.5%
same,Th1 Cell (%),[4]; chemical formula 1 165.6 mpk,6.4%
same,Decrease of blood PGD2 compared to the group administered with dimethyl fumarate,prostaglandin D2 (PGD2),76.6%
COC(=O)/C=C/C(=O)OC [Dimethyl fumarate],Clinical Score (Day 21),[3]; DMF 30 mpk oral twice a day,2.3
same,Clinical Score (Day 21),[3]; DMF 60 mpk oral twice a day,1.3
same,Severity of the disease (clinical score) vs negative control,"[3]; low (G3, 30 mg/kg) and high (G4, 60 mg/kg) dose",significantly reduced the severity of the disease
same,CD8 T Cell (%),[4]; DMF 30 mpk,8.8%
same,CD4 T Cell (%),[4]; DMF 30 mpk,13.1%
same,Th17 Cell (%),[4]; DMF 30 mpk,10.1%
same,Th1 Cell (%),[4]; DMF 30 mpk,10.2%
same,CD8 T Cell (%),[4]; DMF 60 mpk,8.5%
same,CD4 T Cell (%),[4]; DMF 60 mpk,13.8%
same,Th17 Cell (%),[4]; DMF 60 mpk,6.3%
same,Th1 Cell (%),[4]; DMF 60 mpk,7.9%
